Data: the METLIN SMRT retention time set (Domingo-Almenara et al. 2019)

Assay: gradient 5% acetonitrile 3 min, to 50% in 2 min, to 85% in 15 min, held 3 min, 100 µL/min
Conditions: column: Zorbax Extend-C18 2.1 x 50 mm; eluents: water / acetonitrile, 0.1% formic acid
Procedure, shortened: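 The system's dead and dwell volumes were 40 μL and 900 μL, with a Zorbax Extend-C18 column (2.1 × 50 mm, 1.8 μm) run at 100 μL/min in water and acetonitrile containing 0.1% formic acid each. Pure standards were analyzed in mixtures of ~100 molecules by HPLC–quadrupole time-of-flight mass spectrometry in positive and negative ionization mode. Retention time was assigned from computationally picked, manually inspected adduct peaks.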

RP-LC retention time | SMILES
1040 s | Cc1sc(NC(=O)c2cccc(Cl)c2)nc1-c1ccc2c(c1)NC(=O)C(C)O2 (stereo unspecified)
640 s | COc1ccc(CNC(=O)c2cnc(N3CCC4(CC3)OCCO4)nc2N)c(OC)c1
1020 s | CCCn1cc(C(=O)Nc2ccc(OC)c(OC)c2)c(=O)c2ccc(C)nc21
753 s | O=C(NCC1CCCO1)c1cccc(Nc2c(-c3ccc(Cl)cc3)nc3cnccn23)c1 (stereo unspecified)
871 s | CCc1ccc(S(=O)(=O)N2CCC(n3c(-c4ccoc4)nc4cccnc43)C2)cc1 (stereo unspecified)
668 s | Cc1c(C(=O)NC2CC2)cnn1-c1cc(-c2nc(C(C)(C)C)no2)ccn1
972 s | O=C(c1cccc(-c2nccnc2N2CCCC2)c1)N1CCN(c2ccccc2)CC1
814 s | CC(C)CNC(=O)c1nc(-c2ccnc(N3CCC(C)CC3)c2)no1
632 s | O=C(NCc1cccs1)c1coc(NC(=O)c2ccco2)n1
938 s | COc1cc(-c2noc(C3CC(=O)N(c4ccc(C)cc4C)C3)n2)cc(OC)c1OC (stereo unspecified)
638 s | COc1cc(NC(=O)N2CCC(n3cnc4cccnc43)CC2)cc(OC)c1
630 s | COc1ccc(NC(=O)N2CCC(CCOc3cccnc3)CC2)cc1
724 s | CSc1ccc(-c2nc3nc(C)cc(C)n3c2Nc2ccc3c(c2)OCCO3)cc1
805 s | COc1ccccc1NC(=O)C1CCCN1S(=O)(=O)c1cc2c(cc1Cl)NC(=O)CO2 (stereo unspecified)
1170 s | Nc1c(C(=O)Nc2nc(-c3ccccc3)cs2)sc2nc3c(cc12)CCCCC3
970 s | CCOC(=O)c1noc2ncnc(N3CCN(c4ccccc4OC)CC3)c12
1110 s | CCOc1ccccc1-c1noc(Cn2c(=O)n(Cc3cccc(OC)c3)c(=O)c3sccc32)n1
752 s | Cc1ccc(CNC(=O)C2CCN(S(=O)(=O)c3ccc4c(c3)CCCC(=O)N4)CC2)cc1
725 s | CCn1ccc(C(=O)N2CC(c3nc(CCOCC4CC4)no3)C2)n1
1160 s | O=C(Nc1nc(-c2nc3ccccc3s2)cs1)c1coc2ccccc2c1=O
561 s | COCCn1c(C2CCN(C(=O)c3cccc(Cl)c3)C2)nc2ccncc21 (stereo unspecified)
1050 s | CCn1cc2c3c(cccc31)CN(C(=O)CCc1ccccc1)CC2

RP-LC retention time | SMILES
1110 s | COc1ccccc1N1CCN(c2cc(SCC(=O)Nc3cccc(Cl)c3C)ncn2)CC1
619 s | O=C(Cn1ccnc1-c1ccnc(N2CCSCC2)c1)NC1CCCC1
727 s | CCOC(=O)c1csc(NC(=O)Cn2nc3c(cc2=O)CCCC3)n1
702 s | CC(C)N1C(=O)c2cccnc2Sc2cc(C(=O)NC3CC3)ccc21
686 s | CCN(Cc1ccncc1)C1CN(S(=O)(=O)c2ccc3c(c2)CCC3)C1
720 s | CCOC(=O)c1c(C)[nH]c(C(=O)N2CCC(CC(=O)NC3CCCC3)CC2)c1C
796 s | COc1ccc(OC)c(CNC(=O)Cc2nnc(-c3cccc(Br)c3)o2)c1
774 s | CCOC(=O)CCC(=O)NCC1CN(c2ccc(Cl)c(Cl)c2)C(=O)O1 (stereo unspecified)
824 s | Cc1ccc(-n2nc(N3CCCN(C(=O)c4ccc(Br)o4)CC3)ccc2=O)cc1C
566 s | CCCN1CCN(S(=O)(=O)c2cc(-c3[nH]ncc3C(=O)N(C)C)oc2C)CC1
669 s | CC1=C(C(=O)NCc2ccc3c(c2)OCO3)C2(CCN(Cc3ccccc3)CC2)OC1=O
1330 s | Cc1sc2ncnc(N3CCCC(C)C3)c2c1C(=O)Nc1ccc(Cl)cc1F (stereo unspecified)
594 s | Cc1ccc(NC(=O)N2CCN(CCn3cnc4cccnc43)CC2)c(C)c1
1100 s | Cc1ccccc1-c1noc(Cn2c(=O)n(Cc3ccco3)c(=O)c3ccccc32)n1
721 s | COc1ccc(S(=O)(=O)N2C[C@H](F)C[C@@H]2C(=O)N2CCOCC2)cc1Cl
745 s | CCC(C)NC(=O)C1CCN(c2nccc(-n3nc(C)cc3C)n2)CC1 (stereo unspecified)
910 s | CCc1ccc(CNC(=O)C2CCCN(c3ccc(=O)n(-c4ccc(F)cc4)n3)C2)cc1 (stereo unspecified)
828 s | CCOc1ccccc1C(=O)N1CCc2c(c(-c3nc(C4CC4)no3)nn2C)C1
755 s | COc1ccc(C2(C(=O)N3CC(N(Cc4ccncc4)CC4CC4)C3)CCCCC2)cc1
1210 s | CCOc1ccc(-c2csc3c(=O)n(Cc4ccc(Br)cc4)cnc23)cc1OCC
1130 s | O=C(Nc1ccccc1F)N1CC(Oc2ccc(-c3nc(-c4ccccc4)no3)cc2)C1
692 s | Cc1oc2c(c1C(=O)N1CCN(c3cccc(C(F)(F)F)c3)CC1)C1=NCCN1C=N2

RP-LC retention time | SMILES
608 s | CC(C)NC(=O)Cn1cnc2nc(N3CCCC(C(=O)NC4CC4)C3)sc2c1=O (stereo unspecified)
668 s | O=C(Cc1csc(NC(=O)c2ccco2)n1)NCc1cccs1
665 s | CCOc1ccccc1C(=O)N1CCC(C(=O)NCC(F)(F)F)CC1
1150 s | Cc1ccc(Sc2nccnc2N2CCCC(C(=O)Nc3cc(C)cc(C)c3)C2)cc1 (stereo unspecified)
709 s | CC1CN(c2ccccc2)c2nc3c(c(=O)n(CC(=O)O)c(=O)n3C)n2C1 (stereo unspecified)
598 s | O=[N+]([O-])c1ccc(-c2cn3ccccc3n2)cc1
987 s | CCS(=O)(=O)N1CCCc2cc(C(=O)NCCC3=CCCCC3)ccc21
639 s | Cc1cnc(C2CN(Cc3ccc(C(F)(F)F)cc3)C2)n1Cc1ccccc1
948 s | CC1(C)CC2CC(C)(CN2c2nc(-c3ccccc3)nc3ccccc23)C1 (stereo unspecified)
691 s | Cc1ccc(C)c(CNC(=O)C2CCc3nc(N4CCCC4)ncc3C2)c1 (stereo unspecified)
628 s | Cc1ccccc1N1CC(C(=O)N(C)C)CC1=O (stereo unspecified)
858 s | CN(Cc1ccco1)c1nc(-c2ccc(Cl)cc2)nc2ccccc12
557 s | Fc1ccc(-c2nc3ccccc3[nH]2)cc1
1040 s | Cc1ccccc1Nc1c(-c2ccccc2O)nc2ccc(Cl)cn12
1240 s | CCCC(=O)Nc1ccc(-c2nc(-c3ccc(Cl)cc3)no2)cc1
749 s | O=C(NC1CCCCC1)N1CCC(c2noc(-c3cccnc3)n2)C1 (stereo unspecified)
976 s | O=C(Cn1c(N2CCCCC2)nc2ccccc2c1=O)N1CCN(c2ccccc2)CC1
1050 s | Cn1cc(S(=O)(=O)N2CCCCC2)cc1C(=O)N1CCN(c2cccc(Cl)c2)CC1
1080 s | CCOC(=O)c1c(C)c(C(=O)C(C)N(Cc2ccc(F)cc2)C(=O)CC)c(C)n1CC (stereo unspecified)
776 s | O=C(NC1CCCC1)c1ccc2ccnc(N3CCN(c4ccccc4)CC3)c2c1
738 s | O=C([C@H]1C[C@@H](F)CN1S(=O)(=O)c1ccc(C(F)(F)F)cc1)N1CCOCC1

SMILES | RP-LC retention time
CC(C)Oc1cccnc1N(C)C1CCN(Cc2ccccc2)CC1 | 627 s
